Here are results for one molecule from US20240335486A1, “COMPOSITION FOR REARING ORGANISM BELONGING TO ORDER DECAPODA AND COMPOSITION FOR PREVENTING OR TREATING INFECTION IN DECAPODS” (SUMITOMO CHEMICAL COMPANY, LIMITED, priority 2021, published 2024).

Experiment in all cases: Antibacterial activity of lactic acid cell culture products (plate culture, filter paper disk)
Assay type in all cases: cell-based

Assay [1] deals with V. nigripulchritudo TUMSAT-OK1 strain. Conditions: Vibrio nigripulchritudo on Marine agar; disk with 20 μL culture filtrate (ampicillin 100 μg/mL); 25° C., 24 hours; read-out: diameter of the growth-inhibitory zone. The protocol:
(§1) Examination was performed on whether the cell culture products of NITE BP-03199, NITE BP-03200, and NITE BP-03201 have antibacterial activity to Vibrio bacteria. The V. parahaemolyticus TUMSAT-D6 strain (AHPND strain), V. nigripulchritudo TUMSAT-OK1 strain, and V. pengeicida TUMSAT-OG1 strain were used as Vibrio bacteria.
(§2) With reference to FIG. 4, the experimental method will be described. With a bacteria spreader, 100 μL of a bacterial solution 11 of a Vibrio bacterium (approximately 10^8 cfu/mL) was smeared on agar medium 12. The agar medium used was Marine agar (Difco). A filter paper disk 15 was impregnated with 20 μL of a lactic acid bacterial culture filtrate 13, and placed on the agar medium with a Vibrio bacterium smeared thereon. The lactic acid bacterial culture filtrate (cell culture product) was a solution obtained through a process that any lactic acid bacterium of NITE BP-03199, NITE BP-03200, and NITE BP-03201 was cultured with MRS Broth at a temperature of 30° C. and the culture supernatant was filtered through a filter having a pore size of 0.22 μm. The turbidity of each lactic acid bacterial culture solution at a wavelength of 600 nm was approximately 10 OD. The agar medium with filter paper disk 15 placed thereon was subjected to culture at 25° C. for 24 hours, and the diameter (mm) of a growth-inhibitory zone 14 was measured. Each numerical value shown in Table 7 indicates the diameter (mm) of the growth-inhibitory zone. A filter paper disk was impregnated with medium for lactic acid bacteria (MRS Broth) as a negative control, and another one was impregnated with the antibiotic ampicillin (100 μg/mL) as a positive control.

The subject of assay [2] is V. parahaemolyticus TUMSAT-D6 strain (AHPND strain). Conditions: Vibrio parahaemolyticus on Marine agar; disk with 20 μL culture filtrate (ampicillin 100 μg/mL); 25° C., 24 hours; read-out: diameter of the growth-inhibitory zone. The protocol:
as §1, §2

Assay [3] deals with V. pengeicida TUMSAT-OG1 strain. The conditions noted are these: Vibrio penaeicida on Marine agar; disk with 20 μL culture filtrate (ampicillin 100 μg/mL); 25° C., 24 hours; read-out: diameter of the growth-inhibitory zone. The protocol:
as §1, §2

`CC1(C)S[C@@H]2[C@H](NC(=O)[C@H](N)c3ccccc3)C(=O)N2[C@H]1C(=O)O` [Ampicillin, ampicillin]: the zone of inhibition at 100 µg/mL in assay [1] was 29 mm; in assay [2], 28 mm; in assay [3] it was 37 mm.
